{"source": "patent US20120035180A1", "about": "“PHARMACEUTICAL COMPOSITION FOR TREATING CANCER COMPRISING CHLORIN E6-FOLIC ACID CONJUGATE COMPOUND AND CHITOSAN” (priority 2009, published 2012)", "key": {"[1]": {"test": "Spectral and fluorescent parameters of chlorin e6 conjugate in different systems", "format": "physicochemical", "procedure": "Pigment-protein complexes have been formed by adding to the solution of human serum albumin (HAS) a specific amount of photosensitizer dissolved in the same buffer. […] Similarly, the photosensitizer was included in detergent micelle (Triton X-100, C=10^−3M).\nThe electronic absorption spectra of the subject solution were recorded on Specord UV-Vis. The fluorescence spectra and value of degree of fluorescence polarization (P) were recorded on an automatic spectrofluorimeter (Institute of Physics). Life time of photosensitizer fluorescence (ts) was estimated using an impulse fluorometer operating in the mode of photons counting.\nThe main feature of the absorption spectrum is intensive (ε=4.8 10^4 M^−1cm^−1) Qx (0-0) band at 660 nm, which falls into the spectral window of the majority of biological tissues.\nComplex formation of chlorin e6 conjugate, and HSA, liposomes or detergent micelles leads to bathochromic shift in the absorption and fluorescence spectra of pigment. However, an increase in fluorescence photoresponse (B) was observed, which correlates with the growth of life time (ts) without changing of the Kravec integral value."}, "sarcoma M-1": {"tested_on": "sarcoma M-1", "test": "Necrotic area in sarcoma M-1 after PDT", "format": "in vivo, rats", "settings": "10.0 mg/kg, 1 hr exposure after application", "procedure": "After fixation, transverse sections of the tumor nodule in its highest diameter were made, and pictures were taken by a camera connected to a computer.\nFor quantitative assessment of necroses formed after PDT, computer analysis of color tints of histo-topographic tumor slides was performed using a special program.\nThe program included an algorithm of blue color identification (Evans blue), which stained viable areas of the tumor. Tumor areas killed from direct cytotoxic effect or due to structural-functional disorders of microcirculation were not stained in blue. The ratio of all non-stained dots to the total amount of dots in the fence of the tumor slide was considered to be the destruction efficiency.\nFor this purpose, a laser medical instrument “ ? 680-2000” (BIOSPEC, Moscow) was used to perform the exposure at a wavelength of 670 nm in a dose of 100 J/cm^2. The power density was 0.51 W/cm^2, the output power was 0.4 W, and the spot light diameter was 1 cm. Time of exposure was […]. Monitoring over radiating power was conducted by a universal power meter included in the laser device “ ? 680-2000”."}, "Hela cells": {"tested_on": "Hela cells", "test": "Competition assay with exogenous folic acid in Hela cells", "format": "cell-based", "settings": "4 μM/l folic acid, 24 hours", "description": "Then, the sample was centrifuged, the supernatant was taken, and the pellet was rewashed with cooled Hank's solution. The obtained pellet was again transferred into Hank's solution."}, "[2]": {"test": "Generation of singlet oxygen (luminescence at 1270 nm)", "format": "physicochemical", "settings": "air saturated buffer solution, room temperature", "procedure": "Based on new Hamamatsu FEU with InP/InGaAsP semi-conductor photocathodes, a highly sensitive laser fluorometer for registration of luminescence signals in the range of 950-1400 nm with nanosecond time resolution was used.\nPhotoresponse of this process (φΔ) was measured by a relative method through integral intensity of singlet oxygen luminescence at a wavelength of 1270 nm. Excitation was conducted at a wavelength of 531 nm (pulse energy 4 microJ, frequency 1kHz). Tests were made in air saturated buffer solutions at room temperature. […] The φΔ in D2O was considered as 0.7.\nTo analyze kinetic curves of singlet oxygen luminescence, the following function was used:\nwherein A is a coefficient depending on initial concentrations of interacted reagents, and k1 and k2 are constants of luminescence signal increase and extinction, respectively.\nIn the case when the deactivation rate constant Kτ of the photosensitizer triplet state exceeds the deactivation rate constant KΔ of the molecular oxygen […] state, the constant of increase k1 corresponds to Kτ, and constant of extinction k2 corresponds to KΔ. In the case of Kτ<KΔ, inversion of the kinetics of singlet oxygen luminescence occurs. In this case, k2=Kτ and k1=KΔ. […] Thus, based on kinetic data, the life times of singlet oxygen and triplet state can be calculated."}}, "data": [{"substance": "[γ-(6-aminohexyl)folic acid]-chlorin e6 [chlorin e6 conjugate]", "values": [{"measurement": "1^00fl", "setting": "[1]; Dimethyl sulfoxide", "value": 672, "unit": "nm"}, {"measurement": "absorption maximum wavelength (Qx 0-0 band)", "setting": "[1]; Dimethyl sulfoxide", "value": 661, "unit": "Nm"}, {"measurement": "1^00fl", "setting": "[1]; H2O, pH 8.1", "value": 664, "unit": "nm"}, {"measurement": "absorption maximum wavelength (Qx 0-0 band)", "setting": "[1]; H2O, pH 8.1", "value": 657, "unit": "Nm"}, {"measurement": "1^00fl", "setting": "[1]; HSA, pH 8.1", "value": 669, "unit": "nm"}, {"measurement": "absorption maximum wavelength (Qx 0-0 band)", "setting": "[1]; HSA, pH 8.1", "value": 664, "unit": "Nm"}, {"measurement": "1^00fl", "setting": "[1]; Liposomes, pH 8.1", "value": 670, "unit": "nm"}, {"measurement": "absorption maximum wavelength (Qx 0-0 band)", "setting": "[1]; Liposomes, pH 8.1", "value": 665, "unit": "Nm"}, {"measurement": "1^00fl", "setting": "[1]; Methanol", "value": 667, "unit": "nm"}, {"measurement": "absorption maximum wavelength (Qx 0-0 band)", "setting": "[1]; Methanol", "value": 662, "unit": "Nm"}, {"measurement": "1^00fl", "setting": "[1]; Pyridine", "value": 673, "unit": "nm"}, {"measurement": "absorption maximum wavelength (Qx 0-0 band)", "setting": "[1]; Pyridine", "value": 666, "unit": "Nm"}, {"measurement": "1^00fl", "setting": "[1]; Tetrahydrofuran", "value": 673, "unit": "nm"}, {"measurement": "absorption maximum wavelength (Qx 0-0 band)", "setting": "[1]; Tetrahydrofuran", "value": 667, "unit": "Nm"}, {"measurement": "1^00fl", "setting": "[1]; Triton X-100, pH 8.1", "value": 670, "unit": "nm"}, {"measurement": "absorption maximum wavelength (Qx 0-0 band)", "setting": "[1]; Triton X-100, pH 8.1", "value": 665, "unit": "Nm"}, {"measurement": "anti-tumor effect of PDT", "setting": "sarcoma M-1", "value": "most prominent anti-tumor effect"}, {"measurement": "effect of free folic acid on uptake in Hela cells", "setting": "Hela cells", "value": "significantly reduced"}, {"measurement": "τt (life time in the triplet state) from singlet oxygen luminescence kinetics", "setting": "[2]", "value": "2.0±0.2", "unit": "microsec."}, {"measurement": "τΔ (life time of singlet oxygen) from luminescence kinetics", "setting": "[2]", "value": "3.6±0.2", "unit": "microsec."}]}]}
